Data published in PMC10504751, “Chalcone/1,3,4-Oxadiazole/Benzimidazole hybrids as novel anti-proliferative agents inducing apoptosis and inhibiting EGFR & BRAFV^600E” (BMC Chemistry, 2023).

Experiments:
[1] = tested on: SK-MEL-2; test: NCI one-dose SRB anti-proliferative screen; format: cell-based; settings: Homo sapiens; SK-MEL-2 (Melanoma), NCI one dose 10 µM; read-out: Cell growth inhibition %
Method in brief: (§1)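 Read-out: sulforhodamine B protein stain measured colorimetrically after exposure of the cells to test compound at 10 µM. This line formed one member of a 60-line panel spanning lung, leukaemia, melanoma, colon, renal, CNS, prostate, breast and ovarian origins.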

[2] = tested on: SF-268; test: NCI one-dose SRB anti-proliferative screen; format: cell-based; settings: Homo sapiens; SF-268 (CNS Cancer), NCI one dose 10 µM; read-out: Cell growth inhibition %
Method in brief: as §1

[3] = tested on: A549/ATCC; test: NCI one-dose SRB anti-proliferative screen; format: cell-based; settings: Homo sapiens; A549/ATCC (Non-Small Cell Lung Cancer), NCI one dose 10 µM; read-out: Cell growth inhibition %
Method in brief: as §1

[4] = tested on: CCRF-CEM; test: NCI one-dose SRB anti-proliferative screen; format: cell-based; settings: Homo sapiens; CCRF-CEM (Leukemia), NCI one dose 10 µM; read-out: Cell growth inhibition %
Method in brief: as §1

[5] = tested on: KM12; test: NCI one-dose SRB anti-proliferative screen; format: cell-based; settings: Homo sapiens; KM12 (Colon Cancer), NCI one dose 10 µM; read-out: Cell growth inhibition %
Method in brief: as §1

[6] = tested on: M14; test: NCI one-dose SRB anti-proliferative screen; format: cell-based; settings: Homo sapiens; M14 (Melanoma), NCI one dose 10 µM; read-out: Cell growth inhibition %
Method in brief: as §1

[7] = tested on: HL-60(TB); test: NCI one-dose SRB anti-proliferative screen; format: cell-based; settings: Homo sapiens; HL-60(TB) (Leukemia), NCI one dose 10 µM; read-out: Cell growth inhibition %
Method in brief: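 Activity reflects a single-point exposure at 10 µM, with cell mass determined by a sulforhodamine B dye assay.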

[8] = tested on: SNB-75; test: NCI one-dose SRB anti-proliferative screen; format: cell-based; settings: Homo sapiens; SNB-75 (CNS Cancer), NCI one dose 10 µM; read-out: Cell growth inhibition %
Method in brief: as §1

[9] = tested on: ACHN; test: NCI one-dose SRB anti-proliferative screen; format: cell-based; settings: Homo sapiens; ACHN (Renal Cancer), NCI one dose 10 µM; read-out: Cell growth inhibition %
Method in brief: as §1

[10] = tested on: MDA-MB-468; test: NCI one-dose SRB anti-proliferative screen; format: cell-based; settings: Homo sapiens; MDA-MB-468 (Breast Cancer), NCI one dose 10 µM; read-out: Cell growth inhibition %
Method in brief: as §1

[11] = tested on: HOP-92; test: NCI one-dose SRB anti-proliferative screen; format: cell-based; settings: Homo sapiens; HOP-92 (Non-Small Cell Lung Cancer), NCI one dose 10 µM; read-out: Cell growth inhibition %
Method in brief: as §1

[12] = tested on: SF-539; test: NCI one-dose SRB anti-proliferative screen; format: cell-based; settings: Homo sapiens; SF-539 (CNS Cancer), NCI one dose 10 µM; read-out: Cell growth inhibition %
Method in brief: as §1

[13] = tested on: HS 578T; test: NCI one-dose SRB anti-proliferative screen; format: cell-based; settings: Homo sapiens; HS 578T (Breast Cancer), NCI one dose 10 µM; read-out: Cell growth inhibition %
Method in brief: as §1

[14] = tested on: NCI-H460; test: NCI one-dose SRB anti-proliferative screen; format: cell-based; settings: Homo sapiens; NCI-H460 (Non-Small Cell Lung Cancer), NCI one dose 10 µM; read-out: Cell growth inhibition %
Method in brief: as §1

[15] = tested on: COLO 205; test: NCI one-dose SRB anti-proliferative screen; format: cell-based; settings: Homo sapiens; COLO 205 (Colon Cancer), NCI one dose 10 µM; read-out: Cell growth inhibition %
Method in brief: as §1

[16] = tested on: LOX IMVI; test: NCI one-dose SRB anti-proliferative screen; format: cell-based; settings: Homo sapiens, LOX IMIV (Melanoma), NCI one dose 10 µM, read-out: Cell growth inhibition %
Method in brief: as §1

[17] = tested on: OVCAR-5; test: NCI one-dose SRB anti-proliferative screen; format: cell-based; settings: Homo sapiens; OVCAR-5 (Ovarian Cancer), NCI one dose 10 µM; read-out: Cell growth inhibition %
Method in brief: as §1

[18] = tested on: HT29; test: NCI one-dose SRB anti-proliferative screen; format: cell-based; settings: Homo sapiens, HT-29; HT29 (Colon Cancer), NCI one dose 10 µM; read-out: Cell growth inhibition %
Method in brief: as §1

[19] = tested on: OVCAR-4; test: NCI one-dose SRB anti-proliferative screen; format: cell-based; settings: Homo sapiens; OVCAR-4 (Ovarian Cancer), NCI one dose 10 µM; read-out: Cell growth inhibition %
Method in brief: as §1

[20] = tested on: NCI/ADR-RES; test: NCI one-dose SRB anti-proliferative screen; format: cell-based; settings: Homo sapiens; NCI/ADR-RES (Ovarian Cancer), NCI one dose 10 µM; read-out: Cell growth inhibition %
Method in brief: as §1

[21] = tested on: UACC-257; test: NCI one-dose SRB anti-proliferative screen; format: cell-based; settings: Homo sapiens; UACC-257 (Melanoma), NCI one dose 10 µM; read-out: Cell growth inhibition %
Method in brief: as §1

[22] = tested on: HCT-15; test: NCI one-dose SRB anti-proliferative screen; format: cell-based; settings: Homo sapiens; HCT-15 (Colon Cancer), NCI one dose 10 µM; read-out: Cell growth inhibition %
Method in brief: as §1

[23] = tested on: OVCAR-3; test: NCI one-dose SRB anti-proliferative screen; format: cell-based; settings: Homo sapiens; OVCAR-3 (Ovarian Cancer), NCI one dose 10 µM; read-out: Cell growth inhibition %
Method in brief: as §1

[24] = tested on: UACC-62; test: NCI one-dose SRB anti-proliferative screen; format: cell-based; settings: Homo sapiens; UACC-62 (Melanoma), NCI one dose 10 µM; read-out: Cell growth inhibition %
Method in brief: as §1

[25] = tested on: PC-3; test: NCI one-dose SRB anti-proliferative screen; format: cell-based; settings: Homo sapiens; PC-3 (Prostate Cancer), NCI one dose 10 µM; read-out: Cell growth inhibition %
Method in brief: as §1

[26] = tested on: DU-145; test: NCI one-dose SRB anti-proliferative screen; format: cell-based; settings: Homo sapiens; DU-145 (Prostate Cancer), NCI one dose 10 µM; read-out: Cell growth inhibition %
Method in brief: as §1

[27] = tested on: SK-MEL-28; test: NCI one-dose SRB anti-proliferative screen; format: cell-based; settings: Homo sapiens; SK-MEL-28 (Melanoma), NCI one dose 10 µM; read-out: Cell growth inhibition %
Method in brief: as §1

[28] = tested on: SN12C; test: NCI one-dose SRB anti-proliferative screen; format: cell-based; settings: Homo sapiens, SN 12C (Renal Cancer), NCI one dose 10 µM, read-out: Cell growth inhibition %
Method in brief: as §1

[29] = tested on: MALME-3M; test: NCI one-dose SRB anti-proliferative screen; format: cell-based; settings: Homo sapiens; MALME-3M (Melanoma), NCI one dose 10 µM; read-out: Cell growth inhibition %
Method in brief: as §1

[30] = tested on: SW-620; test: NCI one-dose SRB anti-proliferative screen; format: cell-based; settings: Homo sapiens; SW-620 (Colon Cancer), NCI one dose 10 µM; read-out: Cell growth inhibition %
Method in brief: as §1

[31] = tested on: RPMI-8226; test: NCI one-dose SRB anti-proliferative screen; format: cell-based; settings: Homo sapiens; RPMI-8226 (Leukemia), NCI one dose 10 µM; read-out: Cell growth inhibition %
Method in brief: as §1

Compound: COc1ccc(-c2nc3cc(-c4nnc(SCC(=O)Nc5ccc(C(=O)/C=C/c6ccccc6)cc5)o4)ccc3[nH]2)cc1OC [Compound 7p, 2-{5-[2-(3,4-Dimethoxyphenyl)-1 H-benzo[d]imidazol-5-yl]-1,3,4-oxadiazol-2-ylthio}-N-{4-[(E)-3-phenylacryloyl]phenyl}acetamide]
- melting point: 185 to 186 °C
- inhibition at 10 µM [1]: 0%
- inhibition at 10 µM [2]: 0%
- inhibition at 10 µM [3]: 0%
- inhibition at 10 µM [4]: 11.6%
- inhibition at 10 µM [5]: 0.98%
- inhibition at 10 µM [6]: 0%
- inhibition at 10 µM [7]: 0%
- inhibition at 10 µM [8]: 9.72%
- inhibition at 10 µM [9]: 3.66%
- inhibition at 10 µM [10]: 0%
- inhibition at 10 µM [11]: 1.64%
- inhibition at 10 µM [12]: 16.4%
- inhibition at 10 µM [13]: 3.94%
- inhibition at 10 µM [14]: 0%
- inhibition at 10 µM [15]: 0%
- inhibition at 10 µM [16]: 112%
- inhibition at 10 µM [17]: 0.55%
- inhibition at 10 µM [18]: 0%
- inhibition at 10 µM [19]: 0%
- inhibition at 10 µM [20]: 0%
- inhibition at 10 µM [21]: 0%
- inhibition at 10 µM [22]: 8.17%
- inhibition at 10 µM [23]: 0%
- inhibition at 10 µM [24]: 4.99%
- inhibition at 10 µM [25]: 0%
- inhibition at 10 µM [26]: 0%
- inhibition at 10 µM [27]: 0%
- inhibition at 10 µM [28]: 5.25%
- inhibition at 10 µM [29]: 2.95%
- inhibition at 10 µM [30]: 0%
- inhibition at 10 µM [31]: 36%
